# Marks after values point to notes of the source that are not given here.
# Key:
# Type in all cases: in vivo
# [1] = system: atherosclerosis in apoE−/−;LDLr−/− mice; assay: Evaluation of atherosclerosis (intima volume, descending thoracic aorta); details: bisphenol for 14 weeks
# Description: Aortic lesions were assessed in segments centered around the third pair of intercostal artery branches in the descending thoracic aorta. Briefly, the fixed aortas were dehydrated in ethanol, cleared with xylene and embedded in paraffin. Serial sections (10 in total; each 2-3 μm thick and 100 μm apart) were cut and stained using Weigerts hematoxylin-van Gieson. Aortic thickening was assessed as the total volume of intima in the segment investigated in bisphenol-treated versus control samples.
# Aortic volumes were determined by planimetry, using a Lucivid device (MicroBrightField, Colchester, Vermont, […]) attached to a Leitz DRM microscope that allowed the superposition of a computer monitor onto the cross sectional image.
# aortas of apoE−/− mice = assay: Aortic lipids, oxidised lipids and antioxidants by HPLC of aortic homogenates; details: 24 weeks
# Description: (§1) Male C57BL/6J mice, homozygous for the disrupted apoE gene (apoE−/−) were fed standard chow (Lab-Feed, Sydney, Australia) until aged 10 weeks. […] The high fat diet (control and probucol-supplemented) was prepared, according to the specifications of the Harlan Teklad diet TD88137.
# After bleeding, mice were gravity-perfused for 5 min with DPBS containing 20 μM BHT and 1 mM EDTA (Buffer A) and aortas removed as described in Letters J M, et al (1999). Briefly, hearts, ascending and descending aortas (past the femoral junction) were excised and carefully cleaned. […] Once cleaned, aortas were separated from the heart taking care to include all aortic material while avoiding heart tissue. To obtain sufficient material for HPLC analysis (i.e., 30-40 mg wet weight tissue) it was necessary to pool 7-8 aortas. Separate pools of aortas were prepared for both groups and then immediately frozen in Buffer A and stored at −80° C. until analyses.
# Pooled aortas were snap frozen in liquid nitrogen, pulverised, resuspended in Buffer A, homogenised and then either treated with metaphosphoric acid (for ascorbate) or extracted and the hexane fraction analysed for lipid-soluble antioxidants, cholesterol (C), choleseteryl esters (CE), lipid hydroperoxides (LOOH) and cholesteryl ester hydroxides (CE-OH) by HPLC as described in Methods Enzymol. 1994;233:469-489. LOOH and CE-OH were measured as markers of lipoprotein lipid oxidation, as they are the primary and major oxidation products formed when lipoproteins from apoE−/− mice undergo oxidation. […] All compounds were quantified by peak area comparison with authentic standards, and protein determined.
# (§2) ApoE−/− mice were fed either a control or probucol-supplemented diet for 24 weeks before aortas and plasma were analysed.
# apoE−/− mice = assay: Plasma lipids and antioxidants; details: 1% probucol, 24 weeks
# Description: as §1
# Plasma was obtained from control and probucol mice and aliquots frozen for subsequent determination of lipids. Separate aliquots were acidified with metaphosphoric acid (5%) to stabilize vitamin C prior to freezing and storage at −80° C. The remainder was pooled appropriately and used for ex vivo oxidation initiated by the peroxyl radical generator AAPH and lipoprotein separation by FPLC with UV280nm detection, as described in J Lipid Res. 1999;40:1104-1112.
# Lipid-soluble antioxidants and lipids were quantified by HPLC as described in FASEB J. 1999;13:667-675. For ascorbate analysis, frozen acidified samples were thawed, diluted with DPBS to adjust the pH to 7.4 and then immediately subjected to HPLC. Plasma triglycerides were determined enzymatically (Boehringer, Mannheim, Germany).
# as §2
# [2] = system: cholesterol-fed, ballooned New Zealand White rabbits; assay: Atherosclerosis/restenosis and lipid oxidation in cholesterol-fed, ballooned rabbits; details: 2% cholesterol diet with 1% probucol, 6 weeks
# Description: Aortic endothelial denudation was performed at week 3 by withdrawing an inflated 3F Fogarty balloon embolectomy catheter three times down the length of the aorta. Plasma was obtained from animals as described in Example 1 at the start and end of the study. At the end of the study period, individual aortas were removed and prepared for HPLC analysis as in Example 1. Lipids and antioxidants including probucol and its metabolites, bisphenol and diphenoquinone, were analyzed by RP-HPLC as described previously. Aortas designated for histology were perfusion-fixed with 4% (v/v) formaldehyde and transferred into formalin. Cross-sections (2-3 μm thick) were prepared and stained with Weigert's hematoxylin-van Gieson, and the intima to media ratio determined for three sections.
# [3] = lipid-standardised oxidised lipids, 1% probucol
structure (smiles),measurement,setting,value
"CC(C)(C)c1cc(-c2cc(C(C)(C)C)c(O)c(C(C)(C)C)c2)cc(C(C)(C)C)c1O [Bisphenol, bisphenol]","lesion size (intimal volume, descending thoracic aorta) vs age-matched controls",[1],substantially decreased
"CC(C)(Sc1cc(C(C)(C)C)c(O)c(C(C)(C)C)c1)Sc1cc(C(C)(C)C)c(O)c(C(C)(C)C)c1 [Probucol, probucol]",effect on aortic content of lipid standardised oxidized lipids,aortas of apoE−/− mice; 1% probucol,did not affect
same,Aorta Ascorbate,"aortas of apoE−/− mice; 1% probucol, aorta",322 ± 320 pmol/mgp
same,Aorta C18:2,"aortas of apoE−/− mice; 1% probucol, aorta",12 ± 6 nmol/mgp
same,Aorta C20:4,"aortas of apoE−/− mice; 1% probucol, aorta",4.0 ± 2 nmol/mgp
same,Aorta CE-OH,"aortas of apoE−/− mice; 1% probucol, aorta",0.17 ± 0.08 nmol/mgp
same,Aorta LOOH,"aortas of apoE−/− mice; 1% probucol, aorta",0.080 nmol/mgp
same,Aorta Total coenzyme Q,"aortas of apoE−/− mice; 1% probucol, aorta",139 ± 57 pmol/mgp
same,Aorta Ubiquinone-9,"aortas of apoE−/− mice; 1% probucol, aorta",114 ± 47 pmol/mgp
same,Aorta Ubiquinone-10,"aortas of apoE−/− mice; 1% probucol, aorta",25 ± 10 pmol/mgp
same,Aorta α-Tocopherol,"aortas of apoE−/− mice; 1% probucol, aorta",380 pmol/mgp
same,Aorta α-Tocopherylquinone,"aortas of apoE−/− mice; 1% probucol, aorta",30 ± 2 pmol/mgp
same,Aorta C (cholesterol),"aortas of apoE−/− mice; high fat diet with 1% probucol, aorta",173 ± 60 nmol/mgp
same,Aortic CE-OH/LH (× 10^3),aortas of apoE−/− mice; [3],12.5 ± 6.7 × 10^3
same,Aortic LOOH/LH (× 10^3),aortas of apoE−/− mice; [3],4.4^a × 10^3
same,decrease of aortic concentration of C vs controls,"aortas of apoE−/− mice; per protein, 1% probucol",5.6 fold
same,decrease of aortic concentration of total CoQ vs controls,"aortas of apoE−/− mice; per protein, 1% probucol",2.5 fold
same,decrease of aortic concentration of vitamin E vs controls,"aortas of apoE−/− mice; per protein, 1% probucol",2.9 fold
same,decrease of plasma vitamin E vs controls,apoE−/− mice,~4 fold
same,increase of plasma ascorbate vs controls,apoE−/− mice,~1.4 fold
same,Plasma Ascorbate,apoE−/− mice; plasma,129.2 µM
same,Plasma C18:2,apoE−/− mice; plasma,1.3 ± 0.8 mM
same,Plasma C20:4,apoE−/− mice; plasma,0.2 ± 0.2 mM
same,Plasma C (cholesterol),apoE−/− mice; plasma,2.6 ± 1.2 mM
same,Plasma CE-OH,apoE−/− mice; plasma,0.0002 mM
same,Plasma Total coenzyme Q,apoE−/− mice; plasma,0.4 µM
same,Plasma Triglycerides,apoE−/− mice; plasma,0.4 ± 0.0 mM
same,Plasma Ubiquinol-10,apoE−/− mice; plasma,0.01 ± 0.02 µM
same,Plasma Ubiquinone-9,apoE−/− mice; plasma,0.3 ± 0.1 µM
same,Plasma Ubiquinone-10,apoE−/− mice; plasma,0.1 ± 0.1 µM
same,Plasma α-Tocopherol,apoE−/− mice; plasma,10.5 ± 3.50 µM
same,content of plasma and aortic lipids and absolute amounts of oxidized lipids,[2],significantly decreased
same,proportion of aortic lipids that was oxidized,[2],not affected
same,effect on atherosclerosis,[2]; aortic denudation at week 3,significantly decreased

# Source: US20020115728A1, “Compositions and methods for treating cardiovascular disorders” (priority 2000, published 2002)
